From US4871571A, “Dietetic foodstuff containing low calorie bulking agent” (Novo Industri A/S, priority 1987, dated 1989)
Like-named read-outs stand apart in the source and are kept apart here. One block for each molecule: values may come before it.

Tests used:
rats [1] = conditions: rat, in vivo
Protocol: The control diet consisted of the following ingredients in the indicated ratios:
Four other diets were prepared by substituting for corn starch corresponding to 10% by weight of the entire control diet equal amounts respectively: of the bulking agent according to the invention; Neosugar; Polydextrose; and sucrose.
Groups comprising five rats in each group were fed with these diets, and the digestible dry matter was measured after a preliminary period of 10 days by differential gravimetric determination.

rats [2] = assay: Weight increase of rats after an additional 6 weeks and digestibility calculated from it; type: in vivo; conditions: after an additional 6 weeks, diet with 10% of substance
Protocol: Later, after an additional 6 weeks the weight increase was measured.
The percentual weight difference, y % of the bulking agent, taking the sucrose as a control with an assumed digestibility of 100%, thus can be calculated according to the equation: [formula]
As the bulking agent is only 10% of the diet, the digestibility, x %, can be calculated according to the equation: […]
The digestibility of Polydextose and Neosugar can be calculated in a similar manner. In the following table the calculated 6 weeks digestibilities of the bulking agents are shown.

[3] = 10% w/w aqueous solution
Protocol: After given storage periods of 2,6,24 hours the percentage decomposition was measured according to the formula [formula] wherein DP2^+ is the amount of oligomers with a DP of 2 or more.

- Digestible dry matter of diet, mean (rats [1]): 91.8%
- Digestible dry matter of the bulking agent, x % (rats [1]): 68%
Molecule: Polydextrose

- Digestible dry matter of diet, mean (rats [1]): 94.1%
- percentage decomposition ([3]; 2 h, pH 5): 0%
- percentage decomposition ([3]; 2 h, pH 6): 0%
- percentage decomposition ([3]; 2 h, pH 7): 0%
- percentage decomposition ([3]; 5 h, pH 2): 97.2%
- percentage decomposition ([3]; 5 h, pH 3): 31.8%
- percentage decomposition ([3]; 5 h, pH 4): 5.8%
- percentage decomposition ([3]; 5 h, pH 5): 0%
- percentage decomposition ([3]; 5 h, pH 6): 0%
- percentage decomposition ([3]; 5 h, pH 7): 0%
- percentage decomposition ([3]; 6 h, pH 2): 15.0%
- percentage decomposition ([3]; 6 h, pH 3): 3.7%
- percentage decomposition ([3]; 6 h, pH 4): 0%
- percentage decomposition ([3]; 6 h, pH 5): 0%
- percentage decomposition ([3]; 6 h, pH 6): 0%
- percentage decomposition ([3]; 6 h, pH 7): 0%
- percentage decomposition ([3]; 24 h, pH 5): 0%
- percentage decomposition ([3]; 24 h, pH 6): 0%
- percentage decomposition ([3]; 24 h, pH 7): 0%
- percentage decomposition ([3]; 48 h, pH 2): 100%
- percentage decomposition ([3]; 48 h, pH 3): 77.2%
- percentage decomposition ([3]; 48 h, pH 4): 10.8%
- percentage decomposition ([3]; 48 h, pH 5): 1.6%
- percentage decomposition ([3]; 48 h, pH 6): 0%
- percentage decomposition ([3]; 48 h, pH 7): 0%
Molecule: OC[C@H]1O[C@@](CO)(O[C@H]2O[C@H](CO)[C@@H](O)[C@H](O)[C@H]2O)[C@@H](O)[C@@H]1O [Sucrose, sucrose]
- Average weight increase (rats [2]): 220.11 g
